Reference: paper PMC3312352, “Peptides of the Constant Region of Antibodies Display Fungicidal Activity” (PLoS ONE, 2012)
pEC50: −log10 of the molar value. Read-outs that look alike come from different tables or passages of the source. Ends that are not written are not given here. Peptide text beside a SMILES is read from it.

Key:
C. albicans SC5314 [1] = settings: SC5314, 6 h
Experimental: (§1) Selected Fc-peptides, or their asds, were preliminarily tested at the concentration of 100 µg/ml. […] Conventional colony forming unit (CFU) assays were performed as previously described [2]. Briefly, yeast cells from a fresh (20 h at 30°C) actively growing colony on Sabouraud Dextrose agar (SDA) (C. albicans, C. glabrata, C. neoformans) or on SDA supplemented with 1% Tween 20 (M. furfur) were suspended in 199 medium. Initial germination was induced in C. albicans cells by incubation for 1 h at 37°C with shaking. Suspensions were properly diluted to obtain approximately 500 fungal cells in 100 µl of distilled water in the presence or absence (control growth) of the synthetic Fc-peptide to be tested. Cell suspensions were incubated at 37°C for 6 h, then plated on SDA or SDA-Tween. CFU were enumerated after 48–72 h of incubation at 30°C, and peptide fungicidal activity was determined as percentage of CFU inhibition, according to the formula 100-(CFU Fc-peptide treated/CFU control growth)×100. Each assay was carried out in triplicate for statistical purposes.
(§2) EC50 was calculated by nonlinear regression analysis using Graph Pad Prism 4.01 software, San Diego, CA, USA.

C. albicans SC5314 [2] = assay: CFU assay, in vitro fungicidal activity; settings: for EC50 asd/EC50 T11F / EC50 asd/EC50 N10K: ratio of EC50 values against C. albicans SC5314; for pEC50: read-out: EC50 (95% confidence intervals), scalar dilutions, 6 h at 37°C in distilled water, nonlinear regression; for pEC50 / % inhibitory activity at 100 µg/ml in comparison to the control growth (water): CFU assay, C. albicans SC5314, triplicate; for % inhibitory activity at 100 µg/ml in comparison to the control growth (water): peptide 100 µg/ml, ~500 cells in 100 µl distilled water, 6 h at 37°C
Experimental: as §1, §2

C. neoformans 6995 = settings: 6995, 6 h
Experimental: as §1, §2

C. albicans AIDS68 [3] = settings: AIDS68, 6 h
Experimental: as §1, §2

C. albicans CA-6 = settings: CA-6, 6 h
Experimental: as §1, §2

C. glabrata OMNI32 = settings: OMNI32, 6 h
Experimental: as §1, §2

C. albicans SA40 = settings: SA40, 6 h
Experimental: as §1, §2

C. albicans UM4 = settings: UM4, 6 h
Experimental: as §1, §2

M. furfur 101 = settings: 6 h
Experimental: as §1, §2

C. albicans AIDS68 [4] = assay: Experimental vaginal candidiasis in mice; assay type: in vivo, Candida albicans; settings: mice infected with C. albicans AIDS68; 100 µg in PBS at 1, 24, 48 h after challenge

Compound	% inhibitory activity at 100 µg/ml in comparison to the control growth (water) (C. albicans SC5314 [1])	EC50 asd/EC50 T11F (C. albicans SC5314 [2])	pEC50 (C. albicans SC5314 [2])	pEC50 (C. albicans SC5314 [1])	EC50 asd/EC50 N10K (C. albicans SC5314 [2])	also measured
TCRVDARGLTF [Peptide H6A]	100%	6.76	4.98	–	–	–
NQVSLTALVK [Peptide C7A]	73.41%	–	–	4.26	54.66	–
TARVDHRGLTF [Peptide C2A]	79.32%	21.12	4.49	–	–	–
NQVSLTCLAK [Peptide V9A]	100%	–	–	5.75	1.77	–
NAVSLTCLVK [Peptide Q2A]	100%	–	–	5.64	2.30	–
NQVSLACLVK [Peptide T6A]	100%	–	–	5.31	4.86	–
CC(C)C[C@H](NC(=O)[C@H](C)NC(=O)[C@H](CCC(=O)O)NC(=O)[C@@H](N)Cc1c[nH]cn1)C(=O)O [Peptide H4L] (H-HEAL-OH; N-terminus and C-terminus assumed)	84.34%	–	–	–	–	% inhibitory activity at 100 µg/ml in comparison to the control growth (water) (C. neoformans 6995): 85.08%; % inhibitory activity at 100 µg/ml in comparison to the control growth (water) (C. albicans AIDS68 [3]): 59.82%; % inhibitory activity at 100 µg/ml in comparison to the control growth (water) (C. albicans CA-6): 57.04%; % inhibitory activity at 100 µg/ml in comparison to the control growth (water) (C. glabrata OMNI32): 80.49%; % inhibitory activity at 100 µg/ml in comparison to the control growth (water) (C. albicans SA40): 55.99%; % inhibitory activity at 100 µg/ml in comparison to the control growth (water) (C. albicans UM4): 64.63%; % inhibitory activity at 100 µg/ml in comparison to the control growth (water) (M. furfur 101): 92.04%
TCRVDHRGLTA [Peptide F11A]	100%	1.64	5.60	–	–	–
TCRVDHRALTF [Peptide G8A]	100%	1.01	5.81	–	–	–
NQASLTCLVK [Peptide V3A]	–	–	–	5.23	5.91	% inhibitory activity at 100 µg/ml in comparison to the control growth (water) (C. albicans SC5314 [2]): 100%
NQVALTCLVK [Peptide S4A]	100%	–	–	5.62	2.38	–
TCRVAHRGLTF [Peptide D5A]	100%	0.26	6.40	–	–	–
TCRVDHRGLAF [Peptide T10A]	100%	0.55	6.07	–	–	–
TCRVDHRGATF [Peptide L9A]	100%	1.14	5.76	–	–	–
TCAVDHRGLTF [Peptide R3A]	97.61%	8.74	4.87	–	–	–
ACRVDHRGLTF [Peptide T1A]	100%	0.48	6.13	–	–	–
TCRADHRGLTF [Peptide V4A]	100%	0.74	5.95	–	–	–
TCRVDHRGLTF [Peptide T11F]	100%	–	–	–	–	% inhibitory activity at 100 µg/ml in comparison to the control growth (water) (C. neoformans 6995): 100%; % inhibitory activity at 100 µg/ml in comparison to the control growth (water) (C. albicans AIDS68 [3]): 100%; % inhibitory activity at 100 µg/ml in comparison to the control growth (water) (C. albicans CA-6): 100%; % inhibitory activity at 100 µg/ml in comparison to the control growth (water) (C. glabrata OMNI32): 100%; % inhibitory activity at 100 µg/ml in comparison to the control growth (water) (C. albicans SA40): 100%; % inhibitory activity at 100 µg/ml in comparison to the control growth (water) (C. albicans UM4): 100%; % inhibitory activity at 100 µg/ml in comparison to the control growth (water) (M. furfur 101): 100%
NQVSLTCAVK [Peptide L8A]	–	–	–	6.13	0.74	% inhibitory activity at 100 µg/ml in comparison to the control growth (water) (C. albicans SC5314 [2]): 100%
AQVSLTCLVK [Peptide N1A]	100%	–	–	6.23	0.58	–
TCRVDHAGLTF [Peptide R7A]	100%	7.83	4.92	–	–	–
NQVSLTCLVA [Peptide K10A]	0%	–	–	–	–	–
NQVSLTCLVK [Peptide N10K]	100%	–	–	–	–	% inhibitory activity at 100 µg/ml in comparison to the control growth (water) (C. neoformans 6995): 100%; % inhibitory activity at 100 µg/ml in comparison to the control growth (water) (C. albicans AIDS68 [3]): 100%; % inhibitory activity at 100 µg/ml in comparison to the control growth (water) (C. albicans CA-6): 100%; % inhibitory activity at 100 µg/ml in comparison to the control growth (water) (C. glabrata OMNI32): 100%; % inhibitory activity at 100 µg/ml in comparison to the control growth (water) (C. albicans SA40): 100%; % inhibitory activity at 100 µg/ml in comparison to the control growth (water) (C. albicans UM4): 100%; % inhibitory activity at 100 µg/ml in comparison to the control growth (water) (M. furfur 101): 100%
NQVSATCLVK [Peptide L5A]	100%	–	–	6.05	0.88	–
OC(Cn1cncn1)(Cn1cncn1)c1ccc(F)cc1F [fluconazole]	–	–	–	–	–	response of vaginal infection to treatment (C. albicans AIDS68 [4]): resistant to treatment
